The values that follow come from patent US20060229308A1, “Substituted pyrirmidin-4-ylamine analogues as vanilloid receptor ligands” (Neurogen Corporation, priority 2003, published 2006).

For one experiment, the target named is T1, human capsaicin receptor (Homo sapiens, UniProt Q8NER1).
T1 construct: transfected with the pBK-CMV expression construct encoding the full length human capsaicin receptor using standard methods; expressed in transfected cells
T1 sequence (Q8NER1 whole entry): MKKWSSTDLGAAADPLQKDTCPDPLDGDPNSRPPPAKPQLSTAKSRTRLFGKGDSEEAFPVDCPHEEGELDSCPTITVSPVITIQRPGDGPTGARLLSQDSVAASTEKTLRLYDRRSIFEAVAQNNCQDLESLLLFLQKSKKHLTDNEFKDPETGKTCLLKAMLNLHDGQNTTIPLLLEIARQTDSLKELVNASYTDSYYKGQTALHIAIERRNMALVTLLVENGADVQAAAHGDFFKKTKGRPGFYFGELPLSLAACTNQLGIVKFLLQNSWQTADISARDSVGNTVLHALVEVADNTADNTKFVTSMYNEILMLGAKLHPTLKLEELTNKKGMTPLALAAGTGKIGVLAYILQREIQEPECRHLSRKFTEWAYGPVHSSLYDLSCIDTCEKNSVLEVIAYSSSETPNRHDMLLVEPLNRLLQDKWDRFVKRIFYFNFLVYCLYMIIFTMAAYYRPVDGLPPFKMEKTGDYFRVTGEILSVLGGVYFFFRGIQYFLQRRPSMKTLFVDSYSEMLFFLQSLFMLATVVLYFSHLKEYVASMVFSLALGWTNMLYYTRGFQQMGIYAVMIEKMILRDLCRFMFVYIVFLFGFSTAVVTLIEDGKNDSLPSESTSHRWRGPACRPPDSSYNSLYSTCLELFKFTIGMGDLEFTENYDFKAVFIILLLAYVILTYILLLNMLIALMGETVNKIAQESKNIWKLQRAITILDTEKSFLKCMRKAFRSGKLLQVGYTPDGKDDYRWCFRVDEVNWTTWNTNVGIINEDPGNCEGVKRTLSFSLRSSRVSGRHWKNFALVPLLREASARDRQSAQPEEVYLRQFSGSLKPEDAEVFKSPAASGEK
The experiment can be described thus: Calcium mobilization assay, determination of antagonist activity. In kind it is cell-based. Conditions: 50% decrease in fluorescence response of cells expressing human capsaicin receptor exposed to capsaicin; Example 6. The source says: This Example illustrates the preparation of VR1-transfected cells and VR1-containing membrane preparations for use in capsaicin binding assays (Example 5).
A cDNA encoding full length human capsaicin receptor (SEQ ID NO:1, 2 or 3 of U.S. Pat. No. 6,482,611) was subcloned in the plasmid pBK-CMV (Stratagene, La Jolla, Calif.) for recombinant expression in mammalian cells.
Human embryonic kidney (HEK293) cells were transfected with the pBK-CMV expression construct encoding the full length human capsaicin receptor using standard methods. The transfected cells were selected for two weeks in media containing G418 (400 μg/ml) to obtain a pool of stably transfected cells. Independent clones were isolated from this pool by limiting dilution to obtain clonal stable cell lines for use in subsequent experiments.
This Example illustrates representative calcium mobilization assays for use in evaluating test compounds for agonist and antagonist activity.
(§1) Cells transfected with expression plasmids (as described in Example 4) and thereby expressing human capsaicin receptor are seeded and grown to 70-90% confluency in FALCON black-walled, clear-bottomed 96-well plates (#3904, BECTON-DICKINSON, Franklin Lakes, N.J.). The culture medium is emptied from the 96 well plates and FLUO-3 AM calcium sensitive dye (Molecular Probes, Eugene, Oreg.) is added to each well (dye solution: 1 mg FLUO-3 AM, 440 μL DMSO and 440 μl 20% pluronic acid in DMSO, diluted 1:250 in Krebs-Ringer HEPES (KRH) buffer (25 mM HEPES, 5 mM KCl, 0.96 mM NaH2PO4, 1 mM MgSO4, 2 mM CaCl2, 5 mM glucose, 1 mM probenecid, pH 7.4), 50 μl diluted solution per well). Plates are covered with aluminum foil and incubated at 37° C. for 1-2 hours in an environment containing 5% CO2. After the incubation, the dye is emptied from the plates, and the cells are washed once with KRH buffer, and resuspended in KRH buffer.
To measure the ability of a test compound to agonize or antagonize a calcium mobilization response in cells expressing capsaicin receptors to capsaicin or other vanilloid agonist, the EC50 of the agonist capsaicin is first determined. An additional 20 μl of KRH buffer and 1 μl DMSO is added to each well of cells, prepared as described above. 100 μl capsaicin in KRH buffer is automatically transferred by the FLIPR instrument to each well. Capsaicin-induced calcium mobilization is monitored using either FLUOROSKAN ASCENT (Labsystems; Franklin, Mass.) or FLIPR (fluorometric imaging plate reader system; Molecular Devices, Sunnyvale, Calif.) instruments. Data obtained between 30 and 60 seconds after agonist application are used to generate an 8-point concentration response curve, with final capsaicin concentrations of 1 nM to 3 μM. […] software (Synergy Software, Reading, Pa.) is used to fit the data to the equation: y=a*(1/(1+(b/x)^c)) to determine the 50% excitatory concentration (EC50) for the response. In this equation, y is the maximum fluorescence signal, x is the concentration of the agonist or antagonist (in this case, capsaicin), a is the Emax, b corresponds to the EC50 value and c is the Hill coefficient. Determination of Agonist Activity
Test compounds are dissolved in DMSO, diluted in 20 μl KRH buffer so that the final concentration of test compounds in the assay well is between 1 μM and 5 μM, and added to cells prepared as described above. The 96 well plates containing prepared cells and test compounds are incubated in the dark, at room temperature for 0.5 to 6 hours. It is important that the incubation not continue beyond 6 hours. Just prior to determining the fluorescence response, 100 μl capsaicin in KRH buffer at twice the EC50 concentration determined as described above is automatically added by the FLIPR instrument to each well of the 96 well plate for a final sample volume of 200 μl and a final capsaicin concentration equal to the EC50. The final concentration of test compounds in the assay wells is between 1 μM and 5 μM.
The IC50 is the midpoint of a concentration-inhibition curve. As for `CCc1c(Nc2ccc(C(C)(C)C)cc2)ncnc1-c1cccc(OC)c1` [Compound 12, (4-tert-Butyl-phenyl)-[5-ethyl-6-(3-meth-oxy-phenyl)-pyrimi-din-4-yl]-amine], the IC50 is at most 1 µM.

Regarding `COc1cccc(-c2cc(Nc3ccc(C(C)(C)C)cc3)ncn2)c1` [Compound 3, (4-tert-Butyl-phenyl)-[6-(3-meth-oxy-phenyl)-pyrimidin-4-yl]-amine], the IC50 was at most 1 µM.

On to `COc1cccc(-c2nc(COCC(C)C)nc(Nc3ccc(C(C)(C)C)cc3)n2)c1` [Compound 11, (4-tert-Butyl-phenyl)-[4-iso-butoxymethyl-6-(3-meth-oxy-phenyl)-[1,3,5]tri-azin-2-yl]-amine], for which the IC50 was at most 1 µM.

With `COc1cccc(-c2ncnc(Nc3ccc(C(C)(C)C)cc3)c2N)c1` [Compound 17, N^4-(4-tert-Butyl-phenyl)-6-(3-meth-oxy-phenyl)-pyrimidine-4,5-di-amine], the concentration for half-maximal inhibition (IC50) is at most 1 µM.

In the case of `COc1ccccc1-c1cc(Nc2ccc(C(C)(C)C)cc2)ncn1` [Compound 2, (4-tert-Butyl-phenyl)-[6-(2-meth-oxy-phenyl)-pyrimidin-4-yl]-amine], the IC50 was at most 1 µM.

`COc1cccc(-c2ncnc(Nc3ccc(C(C)(C)C)cc3)c2C)c1` [Compound 10, (4-tert-Butyl-phenyl)-[6-(3-meth-oxy-phenyl)-5-methyl-pyrimidin-4-yl]-amine]: the IC50 is at most 1 µM.

For the compound `CC(C)(C)c1ccc(Nc2cc(-c3ccccc3C(F)(F)F)ncn2)cc1` [Compound 5, (4-tert-Butyl-phenyl)-[6-(2-tri-fluoromethyl-phenyl)-pyri-midin-4-yl]-amine], the half-inhibitory concentration (IC50) is at most 1 µM.

On to `Cc1cccc(-c2cc(Nc3ccc(C(C)(C)C)cc3)ncn2)c1` [Compound 7, (4-tert-Butyl-phenyl)-(6-m-tolyl-pyrimidin-4-yl)-amine], for which the IC50 is at most 1 µM.

Take `COc1ccc(-c2cc(Nc3ccc(C(C)(C)C)cc3)ncn2)cc1OC` [Compound 21, (4-tert-Butyl-phenyl)-[6-(3,4-di-methoxy-phenyl)-pyrimidin-4-yl]-amine]: the IC50 is at most 1 µM.

For `CC(C)(C)c1ccc(Nc2cc(-c3cccc(OC(F)(F)F)c3)ncn2)cc1` [Compound 8, (4-tert-Butyl-phenyl)-[6-(3-tri-fluoromethoxy-phenyl)-pyri-midin-4-yl]-amine], the IC50 is at most 1 µM.

For the compound `COc1ccc(-c2cc(Nc3ccc(C(C)(C)C)cc3)ncn2)cc1` [Compound 4, (4-tert-Butyl-phenyl)-[6-(4-meth-oxy-phenyl)-pyrimidin-4-yl]-amine], the IC50 is at most 1 µM.

Take `COc1cncc(-c2ncnc(Nc3ccc(C(C)(C)C)cc3)c2C)c1` [Compound 16, (4-tert-Butyl-phenyl)-[6-(5-meth-oxy-pyridin-3-yl)-5-meth-yl-pyrimidin-4-yl]-amine]: the IC50 is at most 1 µM.

On to `CC(C)(C)c1ccc(Nc2cc(-c3ccccc3)ncn2)cc1` [Compound 20, (4-tert-Butyl-phenyl)-(6-phenyl-pyrimidin-4-yl)-amine], for which the IC50 is at most 1 µM.

In the case of `CCOc1cccc(-c2cc(Nc3ccc(C(C)(C)C)cc3)ncn2)c1` [Compound 9, (4-tert-Butyl-phenyl)-[6-(3-eth-oxy-phenyl)-pyrimidin-4-yl]-amine], the IC50 is at most 1 µM.

Consider `COc1cccc(-c2nc(C)nc(Nc3ccc(C(C)(C)C)cc3)c2C)c1` [Compound 14, (4-tert-Butyl-phenyl)-[6-(3-meth-oxy-phenyl)-2,5-di-methyl-pyrimidin-4-yl]-amine], for which the IC50 was at most 1 µM.

Consider `COc1cccc(-c2nc(N3CCOCC3)nc(Nc3ccc(C(C)(C)C)cc3)c2C)c1` [Compound 19, (4-tert-Butyl-phenyl)-[6-(3-meth-oxy-phenyl)-5-methyl-2-mor-pholin-4-yl-pyrimidin-4-yl]-amine], for which the IC50 is at most 1 µM.

`COc1cccc(-c2nc(C)nc(Nc3ccc(C(F)(F)F)cc3)c2C)c1` [Compound 15, [6-(3-Methoxy-phenyl)-2,5-di-methyl-pyrimidin-4-yl]-(4-tri-fluoromethyl-phenyl)-amine]: the IC50 was at most 1 µM.

For `CCc1c(Nc2ccc(C(F)(F)F)cc2)ncnc1-c1cccc(OC)c1` [Compound 13, [5-Ethyl-6-(3-methoxy-phenyl)-pyrimidin-4-yl]-(4-tri-fluoromethyl-phenyl)-amine], the IC50 is at most 1 µM.

Turning to `CC(C)(C)c1ccc(Nc2cc(-c3ccc(Cl)cc3)ncn2)cc1` [Compound 1, (4-tert-Butyl-phenyl)-[6-(4-chloro-phenyl)-pyrimidin-4-yl]-amine], the IC50 is at most 1 µM.

Turning to `COc1cccc(-c2ncnc(Nc3ccc(C4CCCCC4)cc3)c2N)c1` [Compound 24, N^4-(4-Cyclohexyl-phenyl)-6-(3-meth-oxy-phenyl)-pyrimi-dine-4,5-diamine], the IC50 is at most 1 µM.

Turning to `COc1cccc(-c2ncnc(Nc3ccc(C(F)(F)F)cc3)c2N)c1` [Compound 23, 6-(3-Methoxy-phenyl)-N^4-(4-tri-fluoromethyl-phenyl)-pyrimi-dine-4,5-diamine], the IC50 is at most 1 µM.

Take `COc1cccc(-c2nc(N3CCOCC3)nc(Nc3ccc(C(F)(F)F)cc3)c2C)c1` [Compound 18, [6-(3-Methoxy-phenyl)-5-meth-yl-2-morpholin-4-yl-pyrimidin-4-yl]-(4-tri-fluoromethyl-phenyl)-amine]: the IC50 is at most 1 µM.

For `CC(C)(C)c1ccc(Nc2cc(-c3cccc(F)c3)ncn2)cc1` [Compound 6, (4-tert-Butyl-phenyl)-[6-(3-fluoro-phenyl)-pyrimidin-4-yl]-amine], the IC50 is at most 1 µM.

Another experiment addresses T1, human capsaicin receptor. Nature of the experiment: Calcium mobilization assay, agonist response. In kind it is cell-based. Conditions: capsaicin positive control, calcium mobilization in cells expressing human capsaicin receptor; read-out: approximate EC90 concentration. Here is the method: as §1, with “Plates are covered with aluminum foil and incubated at 37° C. for 1-2 hours in an environment containing 5% CO2. After the incubation, the dye is emptied from the plates, and the cells are washed once with KRH buffer, and resuspended in KRH buffer.” left out
To measure the ability of a test compound to agonize or antagonize a calcium mobilization response in cells expressing capsaicin receptors to capsaicin or other vanilloid agonist, the EC50 of the agonist capsaicin is first determined. […] Capsaicin-induced calcium mobilization is monitored using either FLUOROSKAN ASCENT (Labsystems; Franklin, Mass.) or FLIPR (fluorometric imaging plate reader system; Molecular Devices, Sunnyvale, Calif.) instruments. […] In this equation, y is the maximum fluorescence signal, x is the concentration of the agonist or antagonist (in this case, capsaicin), a is the Emax, b corresponds to the EC50 value and c is the Hill coefficient. […]
(A change in cytosolic calcium serves as a functional read-out for many receptors and channels.)
As to `COc1cc(CNC(=O)CCCC/C=C/C(C)C)ccc1O` [capsaicin], the EC90 was about 0.1 µM.
